{
  "source": "patent US20180207149A1",
  "about": "“METHODS AND COMPOSITIONS FOR ENHANCING IMMUNE RESPONSE TO VACCINATION” (priority 2015, published 2018)",
  "origin": "cited, not measured here",
  "test_system": "immunizing influenza vaccine strains",
  "details": "elderly subjects with chronic illness; topical, before intradermal trivalent influenza vaccine",
  "data": [
    {"smiles": "CC(C)Cn1cnc2c(N)nc3ccccc3c21", "note": "[imiquimod]", "values": [
      {"measurement": "immunogenicity against the immunizing influenza vaccine strains", "result": "expedited, augmented and prolonged the immunogenicity"}
    ]}
  ]
}
